PubChem BioAssay AID1845215 (Molecular Pharmacology Branch, DTP, NCI, 2023)
pIC50: −log10 of the molar value. Activity calls are given as the source filed them. The calls were made as follows: active = viability on the fitted dose curve at most 10% of control; inactive = the rest.

Test system: SW 1271 complex tumor spheroid viability
Experiment: Anticancer human tumor SW 1271 cell line growth inhibition;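 as to pIC50: spheroids exposed to agents for seven days before readout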;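 as to viability, T/C: spheroids exposed to agents for seven days before readout; percent of DMSO vehicle control luminescence so 100% = vehicle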
Settings: for pIC50: curve of first compound; for viability, T/C: stronger effect = lower value
How it was run: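 Complex tumor spheroids combined malignant cells with endothelial cells and mesenchymal stem cells. DNA-damaging drugs and DNA repair inhibitors were tested alone and in combination, at half-log dilutions down from clinical Cmax (top 10 microM if Cmax unknown), 0.25% DMSO final.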

With COc1ccc([C@@H](O)c2cc(-c3ncnc4cc(N5CCOCC5)ccc34)c(F)cc2Cl)nn1 + CC[C@@]1(O)C(=O)OCc2c1cc1n(c2=O)Cc2cc3c(CN(C)C)c(O)ccc3nc2-1 as the compound, how does the pIC50 (second compound 0.003 µM) read?
The pIC50 was 5.91.

And the pIC50 (second compound 0.00949 µM)?
Its pIC50 is 6.99.

What about the pIC50 (second compound 0.03 µM) of the same compound?
Its pIC50 is > 7.50.

And the pIC50 (second compound 0.0949 µM)?
The pIC50 was > 7.50.

What about the pIC50 (second compound 0.3 µM) of the same compound?
The pIC50 was > 7.50.

What about the viability, T/C (second compound 0.003 µM, first compound 0.0316 µM) of the same compound?
Its viability, T/C is 83.3%.

And the viability, T/C (second compound 0.003 µM, first compound 0.1 µM)?
The viability, T/C was 85.1%.

What about the viability, T/C (second compound 0.003 µM, first compound 0.316 µM) of the same compound?
Its viability, T/C is 75.2%.

And the viability, T/C (second compound 0.003 µM, first compound 1 µM)?
The viability, T/C was 54.3%.

What about the viability, T/C (second compound 0.003 µM, first compound 3.16 µM) of the same compound?
The viability, T/C was 26.9%.

And the viability, T/C (second compound 0.003 µM, first compound 10 µM)?
The viability, T/C was 6.38%.

What about the viability, T/C (second compound 0.00949 µM, first compound 0.0316 µM) of the same compound?
Its viability, T/C is 57.9%.

And the viability, T/C (second compound 0.00949 µM, first compound 0.1 µM)?
Its viability, T/C is 53%.

What about the viability, T/C (second compound 0.00949 µM, first compound 0.316 µM) of the same compound?
The viability, T/C was 37.9%.

And the viability, T/C (second compound 0.00949 µM, first compound 1 µM)?
Its viability, T/C is 29.6%.

What about the viability, T/C (second compound 0.00949 µM, first compound 3.16 µM) of the same compound?
The viability, T/C was 19.6%.

And the viability, T/C (second compound 0.00949 µM, first compound 10 µM)?
The viability, T/C was 6.43%.

And the viability, T/C (second compound 0.03 µM, first compound 0.0316 µM)?
Its viability, T/C is 31.5%.

And the viability, T/C (second compound 0.03 µM, first compound 0.1 µM)?
The viability, T/C was 31.1%.

And the viability, T/C (second compound 0.03 µM, first compound 0.316 µM)?
The viability, T/C was 28.8%.

What about the viability, T/C (second compound 0.03 µM, first compound 1 µM) of the same compound?
The viability, T/C was 28.6%.

And the viability, T/C (second compound 0.03 µM, first compound 3.16 µM)?
Its viability, T/C is 19.9%.

What about the viability, T/C (second compound 0.03 µM, first compound 10 µM) of the same compound?
The viability, T/C was 6.27%.

What about the viability, T/C (second compound 0.0949 µM, first compound 0.0316 µM) of the same compound?
Its viability, T/C is 27.9%.

And the viability, T/C (second compound 0.0949 µM, first compound 0.1 µM)?
Its viability, T/C is 27.6%.

What about the viability, T/C (second compound 0.0949 µM, first compound 0.316 µM) of the same compound?
Its viability, T/C is 25%.

And the viability, T/C (second compound 0.0949 µM, first compound 1 µM)?
Its viability, T/C is 25.9%.

What about the viability, T/C (second compound 0.0949 µM, first compound 3.16 µM) of the same compound?
Its viability, T/C is 21.7%.

And the viability, T/C (second compound 0.0949 µM, first compound 10 µM)?
The viability, T/C was 3.71%.

What about the viability, T/C (second compound 0.3 µM, first compound 0.0316 µM) of the same compound?
Its viability, T/C is 13%.

And the viability, T/C (second compound 0.3 µM, first compound 0.1 µM)?
The viability, T/C was 14.8%.

What about the viability, T/C (second compound 0.3 µM, first compound 0.316 µM) of the same compound?
The viability, T/C was 15%.

What about the viability, T/C (second compound 0.3 µM, first compound 1 µM) of the same compound?
Its viability, T/C is 10.2%.

What about the viability, T/C (second compound 0.3 µM, first compound 3.16 µM) of the same compound?
Its viability, T/C is 1.72%.

And the viability, T/C (second compound 0.3 µM, first compound 10 µM)?
The viability, T/C was 0.2%.

CNCc1ccc(-c2cc(-c3nc(-c4ccc(S(=O)(=O)C(C)C)cc4)cnc3N)on2)cc1 + Cn1nnc2c(C(N)=O)ncn2c1=O was tested. Which pIC50 (second compound 1 µM) did it give?
Its pIC50 is 6.67.

And the pIC50 (second compound 3.16 µM)?
The pIC50 was 6.77.

And the pIC50 (second compound 10 µM)?
The pIC50 was 6.73.

And the pIC50 (second compound 31.6 µM)?
Its pIC50 is 6.76.

What about the pIC50 (second compound 100 µM) of the same compound?
The pIC50 was 7.28.

And the viability, T/C (second compound 1 µM, first compound 0.00949 µM)?
Its viability, T/C is 105%.

And the viability, T/C (second compound 1 µM, first compound 0.03 µM)?
The viability, T/C was 102%.

What about the viability, T/C (second compound 1 µM, first compound 0.0949 µM) of the same compound?
Its viability, T/C is 98.8%.

And the viability, T/C (second compound 1 µM, first compound 0.3 µM)?
Its viability, T/C is 29.5%.

And the viability, T/C (second compound 1 µM, first compound 0.949 µM)?
The viability, T/C was 7.14%.

And the viability, T/C (second compound 1 µM, first compound 3 µM)?
The viability, T/C was 0.1%.

And the viability, T/C (second compound 3.16 µM, first compound 0.00949 µM)?
The viability, T/C was 109%.

And the viability, T/C (second compound 3.16 µM, first compound 0.03 µM)?
The viability, T/C was 106%.

What about the outcome (second compound 3.16 µM, first compound 0.0949 µM) of the same compound?
Its outcome is “inactive”.

And the viability, T/C (second compound 3.16 µM, first compound 0.3 µM)?
The viability, T/C was 23.8%.

And the viability, T/C (second compound 3.16 µM, first compound 0.949 µM)?
Its viability, T/C is 7.34%.

And the viability, T/C (second compound 3.16 µM, first compound 3 µM)?
Its viability, T/C is 0.12%.

And the viability, T/C (second compound 10 µM, first compound 0.00949 µM)?
The viability, T/C was 99.1%.

And the viability, T/C (second compound 10 µM, first compound 0.03 µM)?
The viability, T/C was 105%.

What about the viability, T/C (second compound 10 µM, first compound 0.0949 µM) of the same compound?
The viability, T/C was 89.7%.

What about the viability, T/C (second compound 10 µM, first compound 0.3 µM) of the same compound?
The viability, T/C was 20.8%.

And the viability, T/C (second compound 10 µM, first compound 0.949 µM)?
Its viability, T/C is 5.82%.

And the viability, T/C (second compound 10 µM, first compound 3 µM)?
Its viability, T/C is 0.11%.

What about the viability, T/C (second compound 31.6 µM, first compound 0.00949 µM) of the same compound?
The viability, T/C was 115%.

And the viability, T/C (second compound 31.6 µM, first compound 0.03 µM)?
Its viability, T/C is 82.3%.

What about the viability, T/C (second compound 31.6 µM, first compound 0.0949 µM) of the same compound?
Its viability, T/C is 75.5%.

And the viability, T/C (second compound 31.6 µM, first compound 0.3 µM)?
Its viability, T/C is 17.5%.

And the viability, T/C (second compound 31.6 µM, first compound 0.949 µM)?
The viability, T/C was 37.5%.

And the viability, T/C (second compound 31.6 µM, first compound 3 µM)?
Its viability, T/C is 0.15%.

And the viability, T/C (second compound 100 µM, first compound 0.00949 µM)?
Its viability, T/C is 93.7%.

And the viability, T/C (second compound 100 µM, first compound 0.03 µM)?
The viability, T/C was 69.8%.

And the viability, T/C (second compound 100 µM, first compound 0.0949 µM)?
The viability, T/C was 29.5%.

What about the viability, T/C (second compound 100 µM, first compound 0.3 µM) of the same compound?
The viability, T/C was 9.36%.

What about the viability, T/C (second compound 100 µM, first compound 0.949 µM) of the same compound?
The viability, T/C was 29.7%.

What about the viability, T/C (second compound 100 µM, first compound 3 µM) of the same compound?
Its viability, T/C is 0.18%.
